Experimental data from patent publication US20190298740A1, “METHODS AND COMPOSITIONS FOR TREATING HALLUCINATIONS AND CONDITIONS RELATED TO THE SAME” (Enterin, Inc., priority 2018, published 2019).
“Also recorded” adds a separate entry of the source.

What was measured:
[1] = Aminosterol-induced response after a single oral dose; type: in vivo; conditions: single 200 mg oral dose
[2] = cited from earlier work
[3] = tested on: PD related hallucinations; conditions: cited from earlier work
[4] = cited from earlier work; remark: listed apart in the source
[5] = cited from earlier work; remark: listed apart in the source
[6] = tested on: Parkinson's disease patient with hallucinations; experiment: Case reports: oral squalamine in PD patients with hallucinations (Examples 1-3); type: in vivo, human
Description: MV1, a person with a 13-year history of PD had been suffering from daily visual hallucinations for 5 years. MV1 reported that the hallucinations occurred at night. MV1 was aware that the apparitions were unreal, and they were fully awake when they occurred. The hallucinations consisted mostly of faceless dead relatives who came into their bedroom, sat on their bed, or in a chair, or walked around. […] Sometimes MV1 would shout at the hallucinations to go away and the hallucinations would disappear. MV1 also had tactile hallucinations, causing MV1 to feel that insects such as cockroaches were climbing up their legs. They would bend down and attempt to brush them off their feet and legs. MV1 also had tactile hallucinations of the hands “as if someone was picking at them”. They were not treated with any antipsychotic medication and they didn't take any sleeping pills or sedatives. They also suffered from REM-behavior disorder (RBD), and had thrashing of arms and legs during their sleep. Their spouse had moved out of the bed several years prior because of the thrashing, screaming and hallucinations.
The patient was started on 75 mg squalamine daily. […] They were also sleeping better. […] Subsequently, the dose was increased to 175 mg, and maintained at 175 mg per day for another week or two, before discontinued. […]
NY1, a person with a 5-year history of PD suffered from daily hallucinations. The hallucinations had been occurring for a number of years. The hallucinations occurred any time of day or night.
NY1 was started on squalamine 75 mg daily and then escalated to 100 mg daily. […] They were maintained at 125 mg per day for about a week, after which medication was discontinued. NY1 remained hallucination-free for 9 days following discontinuation.
The patient, a person with a 10-year history of Parkinson's Disease suffered from frequent hallucinations. The hallucinations would occur at night and consist of people roaming around in their bedroom, such as a young person sitting on their bed, or a priest standing by the bed. They were fully awake and aware that the visions were unreal. They also suffered from fragmented sleep and REM-behavior disorder (RBD).
BC was started on a squalamine dose of 75 mg daily, which was increased to a daily dose of 175 mg that was maintained for a 3-month period. […] They described the hallucinations as cooks with white top hats and cleaners in blue uniforms. […] Upon discontinuing the medication, the hallucinations returned. This cycle of stopping and resuming squalamine treatment was repeated three times, and the hallucinations abated every time the squalamine treatment was resumed and hallucinations came back every time squalamine treatment was stopped. A portion of their sleep diary is shown below in Table 2.

CC(C)[C@@H](CC[C@@H](C)[C@H]1CC[C@H]2[C@@H]3[C@H](O)C[C@H]4C[C@@H](NCCCNCCCCNCCCN)CC[C@]4(C)[C@H]3CC[C@]12C)OS(=O)(=O)O [Aminosterol 1436]
Duration of the aminosterol-induced response [1]: about 4 days | Weight loss ([2]; administered parenterally to dogs and rodents): capable of inducing weight loss | Anorectic activity ([2]; delivered orally): no anorectic activity

CC(C)COc1ccc(CNC(=O)N(Cc2ccc(F)cc2)C2CCN(C)CC2)cc1 [Pimavanserin]
Improvement over placebo on the SCAD-PD questionnaire ([3]; PD related hallucinations): 3 point | Increased mortality (black box warning) ([3]; label): 11%

CC(C)[C@@H](CC[C@@H](C)[C@H]1CC[C@H]2[C@@H]3[C@H](O)C[C@H]4C[C@@H](NCCCNCCCCN)CC[C@]4(C)[C@H]3CC[C@]12C)OS(=O)(=O)O.C[C@H](O)C(=O)O.C[C@H](O)C(=O)O [squalamine dilactate salt]
Oral bioavailability ([4]; preliminary studies): poorly bioavailable orally | Absorption ([4]; rodents, subcutaneous and intraperitoneal routes): well absorbed | Solubility in water [5]: highly water soluble

CC(C)[C@@H](CC[C@@H](C)[C@H]1CC[C@H]2[C@@H]3[C@H](O)C[C@H]4C[C@@H](NCCCNCCCCN)CC[C@]4(C)[C@H]3CC[C@]12C)OS(=O)(=O)O [squalamine]
Duration of the aminosterol-induced response [1]: about 4 days | Time hallucination-free following discontinuation, patient NY1 ([6]; after 125 mg per day for about a week): 9 days | Time hallucination-free after discontinuation, patient MV1 ([6]; after 175 mg per day): 30 days | Hallucinations, patient ([6]; after stopping squalamine administration): vivid hallucinations returned; also recorded: Apparitions back with a vengeance; also recorded: Apparitions, cooks in tall hats; also recorded: Apparitions, cleaning crew in blue uniforms; also recorded: Apparitions, severely disturbed sleep | Hallucination frequency, patient NY1 ([6]; oral, 100 mg daily, daily hallucinations before): no more than once or twice a week | Sleep and RBD, patient MV1 ([6]; oral, 125 mg daily): continued to improve | Hallucinations, patient NY1 ([6]; oral, 125 mg per day): disappeared altogether | Hallucinations, patient ([6]; oral, 175 mg daily for 3 months): no hallucinations | Hallucinations, patient MV1 ([6]; oral, daily dose increased to 125 mg): disappeared completely | Hallucinations, patient MV1 ([6]; oral, dose increased from 75 mg daily): hallucinating less frequently | Hallucinations, patient ([6]; squalamine restarted at 125 mg daily): hallucinations vanished; also recorded: No hallucinations since last entry; also recorded: No hallucinations since restarting
